The text below walks through data of PMC11117652, “The Construction and Application of a New Screening Method for Phosphodiesterase Inhibitors” (Biosensors, 2024).

For one assay, the system named is cGMP-related PDEs. Nature of the assay: GloSensor live-cell screening model targeting cGMP (pGloSensor-42F cGMP plasmid in HEK293T cells, SNAP-stimulated). It is filed as cell-based. The conditions noted are these: Homo sapiens, HEK-293T, read-out: IC50 detected using the cell screening model targeting cGMP. The procedure: The HEK293T human embryonic kidney cell line was purchased from SunnCell (Wuhan, China). After recovery, HEK293T cells were passaged 3–4 times a week and cultured at 37 °C in 5% CO2. The culture medium consisted of DMEM, 10% FBS, and 1% antibiotic solution. Cells were grown to a density of 70–80% in a 6 cm culture dish, the original culture medium was discarded, and 3 mL Opti-MEM was added. A total of 5 μL lipo2000 transfection reagents and 7 μL plasmids were each diluted to 50 μL with Opti-MEM. The above two solutions were mixed, allowed to stand for 20 min, and then added to the cell culture medium. They were then incubated with 5% CO2 at 37 °C for 5 h. The original culture medium was discarded and replaced with the DMEM culture medium. After overnight cultivation at 37 °C and 5% CO2, the transfected cells were transferred to a 96-well plate and cultured under the same conditions for 9 h. The original culture medium was replaced with 80 μL/well loaded culture medium (containing 2 mM D-Luciferin protein) and incubated at room temperature (20–23 °C) in the dark for 2 h. A total of 10 μL/well with a concentration of 50 μM forskolin (for cAMP testing) or 250 μM SNAP (for cGMP testing) was added to the sample culture medium to increase the level of background cyclic nucleotides in the cells. According to the detection requirements, a certain concentration of analytes was sequentially added to different wells, and the luminescence signal was measured using the SynergyNeo2 (Agilent, Santa Clara, CA, USA) instrument at time 0. The measurement was conducted every 5 min, and the longest duration was based on the start of the luminescence signal’s decline. Data analysis was carried out using Microsoft Excel and GraphPad Prism 8 software (version 8.0.2 for Windows, GraphPad Software, San Diego, CA, USA). The data in the luminescence signal from the replica well were averaged to produce a response vs. time curve. The cell screening results of the compounds were expressed as percentages (the difference in luminescence signals between the experimental group and the blank control group/blank control group luminescence signal × 100%). For the measurement of IC50, at least seven concentrations of chemicals were used, and IC50 values were calculated using the nonlinear method. […] Similar to the cell screening models targeting cAMP, the cell screening models targeting cGMP could not effectively detect the ability of sildenafil to increase intracellular cGMP levels when the GC agonist SNAP was not present or was at low concentrations. […] To determine the shortest detection time for the two cell models, the luminescence signal–time curve was established.

The next assay deals with cAMP-related PDEs. Nature of the assay: GloSensor live-cell screening model targeting cAMP (pGloSensor-22F cAMP plasmid in HEK293T cells, forskolin-stimulated). It is filed as cell-based, human. The conditions noted are these: for IC50: Homo sapiens, HEK-293T, HEK293T cells, 5 μM forskolin, n = 3, read-out: IC50 detected using the cell screening model targeting cAMP; for Luminescence Signal (%): cAMP cell screening model, (experimental group - blank control)/blank control luminescence x 100%, compound concentration not given. The procedure: The HEK293T human embryonic kidney cell line was purchased from SunnCell (Wuhan, China). After recovery, HEK293T cells were passaged 3–4 times a week and cultured at 37 °C in 5% CO2. The culture medium consisted of DMEM, 10% FBS, and 1% antibiotic solution.
Cells were grown to a density of 70–80% in a 6 cm culture dish, the original culture medium was discarded, and 3 mL Opti-MEM was added. A total of 5 μL lipo2000 transfection reagents and 7 μL plasmids were each diluted to 50 μL with Opti-MEM. The above two solutions were mixed, allowed to stand for 20 min, and then added to the cell culture medium. They were then incubated with 5% CO2 at 37 °C for 5 h. The original culture medium was discarded and replaced with the DMEM culture medium. After overnight cultivation at 37 °C and 5% CO2, the transfected cells were transferred to a 96-well plate and cultured under the same conditions for 9 h.
The original culture medium was replaced with 80 μL/well loaded culture medium (containing 2 mM D-Luciferin protein) and incubated at room temperature (20–23 °C) in the dark for 2 h. A total of 10 μL/well with a concentration of 50 μM forskolin (for cAMP testing) or 250 μM SNAP (for cGMP testing) was added to the sample culture medium to increase the level of background cyclic nucleotides in the cells. According to the detection requirements, a certain concentration of analytes was sequentially added to different wells, and the luminescence signal was measured using the SynergyNeo2 (Agilent, Santa Clara, CA, USA) instrument at time 0. The measurement was conducted every 5 min, and the longest duration was based on the start of the luminescence signal’s decline.
(§1) Data analysis was carried out using Microsoft Excel and GraphPad Prism 8 software (version 8.0.2 for Windows, GraphPad Software, San Diego, CA, USA). The data in the luminescence signal from the replica well were averaged to produce a response vs. time curve. The cell screening results of the compounds were expressed as percentages (the difference in luminescence signals between the experimental group and the blank control group/blank control group luminescence signal × 100%). For the measurement of IC50, at least seven concentrations of chemicals were used, and IC50 values were calculated using the nonlinear method.
Considering the detection efficiency, the possible toxicity of the reagent to cells, and the Z-factor, the optimal concentration of the AC agonist forskolin required for the cell screening model targeting cAMP was set at 5 μM.
To determine the shortest detection time for the two cell models, the luminescence signal–time curve was established. Based on the variations in luminescence detection values over time from two sets of data (Figure 2), it was determined that the detection time for cell screening models targeting cAMP should not be less than 35 min, while the detection time for cell screening models targeting cGMP should not be less than 30 min.

A further assay has as its system PDE5. Also noted: method as in PMID 12646997. The conditions noted are these: cited from earlier work.
For assay [1], the target named is T1, Recombinant human PDE4B protein (Homo sapiens, UniProt Q07343).
T1 construct: purchased Abcam ab125582
T1 sequence (Q07343 whole entry): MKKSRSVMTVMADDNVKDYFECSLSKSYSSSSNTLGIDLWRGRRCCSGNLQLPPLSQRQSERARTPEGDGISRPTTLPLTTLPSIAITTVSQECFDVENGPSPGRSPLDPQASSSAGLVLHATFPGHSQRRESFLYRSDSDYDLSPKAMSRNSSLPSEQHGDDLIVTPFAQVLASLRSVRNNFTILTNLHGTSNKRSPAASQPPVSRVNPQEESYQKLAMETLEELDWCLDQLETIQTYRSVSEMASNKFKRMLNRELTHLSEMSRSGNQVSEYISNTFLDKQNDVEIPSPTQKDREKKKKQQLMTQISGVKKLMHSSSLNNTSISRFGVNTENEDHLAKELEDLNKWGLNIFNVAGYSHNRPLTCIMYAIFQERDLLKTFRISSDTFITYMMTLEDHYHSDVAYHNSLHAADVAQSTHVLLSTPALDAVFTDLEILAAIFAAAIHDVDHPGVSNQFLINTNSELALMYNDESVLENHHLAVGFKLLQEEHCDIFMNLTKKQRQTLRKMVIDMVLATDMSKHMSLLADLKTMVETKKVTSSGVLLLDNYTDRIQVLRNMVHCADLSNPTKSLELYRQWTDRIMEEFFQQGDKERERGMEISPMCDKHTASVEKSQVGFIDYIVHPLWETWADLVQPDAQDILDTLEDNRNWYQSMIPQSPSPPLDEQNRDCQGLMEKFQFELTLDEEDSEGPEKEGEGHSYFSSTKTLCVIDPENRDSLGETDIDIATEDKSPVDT
As to the kind of experiment: In vitro enzymatic activity assay (PDE-Glo Phosphodiesterase Assay), PDE4B. It is filed as biochemical. The procedure:
(§2) Penicillin–Streptomycin solution (10,000 U/mL Penicillin, 10,000 μg/mL Streptomycin; Cat #C100C5) was obtained from NCM Biotech (Suzhou, China). Fetal Bovine Serum (FBS; Cat #BC-SE-FBS01) and phosphate-buffered saline (PBS; Cat #10010001) were obtained from Sbjbio (Nanjing, China). Trypsin-EDTA Solution (Cat #BL512A) was obtained from Biosharp (Hefei, China). DMEM medium (High Glucose; Cat #XB01-01) was obtained from VivaCell (Shanghai, China). Opti-MEM medium (Cat #Lvn1012A) was obtained from Livning (Beijing, China). […] The Lipofectamine™ 2000 Transfection Kit (Cat #11668500) was obtained from Thermo Fisher Scientific (Waltham, MA, USA). The pGloSensor™-22F cAMP Plasmid map (Cat #E2301), pGloSensor™-42F cGMP Plasmid map (Cat #CS177001), and PDE-Glo™ Phosphodiesterase Assay (Cat #V1361) were purchased from Promega (Madison, WI, USA). Recombinant human PDE4B protein (Cat #ab125582) and recombinant human PDE7A/HCP1 protein (Cat #ab125786) were obtained from Abcam (Cambridgeshire, UK).
(§3) The inhibitory activities of the compounds against PDE4B and PDE7A were determined according to the procedures required for the PDE-Glo™ Phosphodiesterase Assay.
Data analysis was carried out using Microsoft Excel and GraphPad Prism 8 software (version 8.0.2 for Windows, GraphPad Software, San Diego, CA, USA). The data in the luminescence signal from the replica well were averaged to produce a response vs. time curve. […] For the measurement of IC50, at least seven concentrations of chemicals were used, and IC50 values were calculated using the nonlinear method.

The target in assay [2] is T2, Recombinant human PDE7A/HCP1 protein (Homo sapiens, UniProt Q13946).
T2 construct: purchased Abcam ab125786
T2 sequence (Q13946 whole entry): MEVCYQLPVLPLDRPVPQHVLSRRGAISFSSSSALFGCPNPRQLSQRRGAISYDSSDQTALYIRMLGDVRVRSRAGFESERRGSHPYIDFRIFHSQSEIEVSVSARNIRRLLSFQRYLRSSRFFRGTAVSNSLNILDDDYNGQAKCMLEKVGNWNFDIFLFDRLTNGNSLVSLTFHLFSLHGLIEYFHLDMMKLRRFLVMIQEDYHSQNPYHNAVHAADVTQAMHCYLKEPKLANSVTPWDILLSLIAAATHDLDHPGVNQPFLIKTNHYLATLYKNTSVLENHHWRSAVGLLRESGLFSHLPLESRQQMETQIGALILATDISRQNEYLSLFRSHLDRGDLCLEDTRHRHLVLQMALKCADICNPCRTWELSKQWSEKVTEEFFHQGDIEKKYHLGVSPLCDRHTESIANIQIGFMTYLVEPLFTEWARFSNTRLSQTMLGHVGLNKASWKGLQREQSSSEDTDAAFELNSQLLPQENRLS
As to the kind of experiment: In vitro enzymatic activity assay (PDE-Glo Phosphodiesterase Assay), PDE7A. It is filed as biochemical. The procedure: as §2, with “UK). Compounds 1–7 were provided by Guoqiang Li’s research group (School of Medicine and Pharmacy, Ocean University, Qingdao, China).” for “UK).”
as §3, §1

Where [3] appears, read: HEK293T cells, 25 μM SNAP, n = 3.

“And” between values parts separate entries of the source, which are not always exact repeats. Equal entries are not always repeated. Where two headings read alike, the source gives them in different places.

A word on the IC50: it is the point on the concentration scale where inhibition reaches its midpoint. With `CCCc1nn(C)c2c(=O)[nH]c(-c3cc(S(=O)(=O)N4CCN(C)CC4)ccc3OCC)nc12` [Sildenafil, sildenafil], the IC50 with cGMP-related PDEs (setting [3]) was about 0.1 µM.

In the case of `COc1cc2c(cc1OC)-c1c(OC)c(OC)cc3c1[C@H](C2)N(C)CC3` [Glaucine, reference compound], the IC50 with cAMP-related PDEs was 59.8 µM.

As for `Cc1nc(-c2cnn(C)c2-c2ccc(C(F)(F)F)cn2)c2c(N3CCC3)ncnn12` [PF-999, PF-05180999, reference compound], the IC50 in the assay on cAMP-related PDEs was determined as 142 µM; in the assay on cGMP-related PDEs (setting [3]), 45.6 µM.

As to `CC(C)Cn1c(=O)n(C)c(=O)c2[nH]cnc21` [IBMX, Isobutylmethylxanthine, reference compound], the IC50 was found to be 28.6 µM in the assay with cAMP-related PDEs and 184 µM with cGMP-related PDEs (setting [3]).

Take `COc1ccc(-c2oc3c(CC=C(C)C)c(O[C@@H]4O[C@H](CO)[C@@H](O)[C@H](O)[C@H]4O)cc(O)c3c(=O)c2O[C@@H]2O[C@@H](C)[C@H](O)[C@@H](O)[C@H]2O)cc1` [Icariin]: the IC50 was 642 µM with cGMP-related PDEs and 0.432 µM with PDE5.

`COc1cc(C=Cc2cccnc2)cc(OC)c1OC` [Compound 3, 3-[2-(3,4,5-Trimethoxyphenyl)-ethenyl] pyridine]: the “Luminescence Signal (%)” value in the assay with cAMP-related PDEs came out at 87%. Besides, the IC50 in assay [1] turned out to be 5.7 µM; in assay [2], 4.5 µM.

On to `COc1cc(C=Cc2ccncc2)cc(OC)c1OC` [Compound 4, 4-[2-(3,4,5-Trimethoxyphenyl)-ethenyl] pyridine], for which, in the assay with cAMP-related PDEs, the “Luminescence Signal (%)” value came out at 77%. Besides, the figures for the IC50 in assay [1] and in assay [2] were 12.6 µM and 8.6 µM, respectively.

With `CC(=O)O[C@@H]1C(=O)CCC2=CCC[C@H](C)[C@@]2(C)/C=C\1C` [Compound 6, 4-acetoxy-2,8-neolemnadien-5-one], the “Luminescence Signal (%)” value in the assay on cAMP-related PDEs is reported as 51%. In addition, in assay [2], the IC50 worked out at 36.2 µM and the “PDE7A inhibitory activity (in words)” value was “weak”.

With `COc1ccccc1C=Cc1ccc(N(C)C)cc1` [Compound 5, 4-[2-(2-Methoxyphenyl)-ethenyl]-N,N-dimethylbenzenamine], the “Luminescence Signal (%)” value with cAMP-related PDEs was 55%. In addition, the IC50 was determined as 14.1 µM in assay [1] and 2.1 µM in assay [2].

For `Clc1cccc(Cl)c1C=Cc1ccccn1` [Compound 1, 2-[2-(2,6-Dichlorophenyl)-ethenyl] pyridine], the “Luminescence Signal (%)” value in the assay with cAMP-related PDEs was 109%. The IC50 in assay [1] stood at 63.7 µM; in assay [2] it was 28.7 µM.

As for `COc1cc(C=Cc2ccccn2)cc(OC)c1OC` [Compound 2, 2-[2-(3,4,5-Trimethoxyphenyl)-ethenyl] pyridine], in the assay with cAMP-related PDEs, the “Luminescence Signal (%)” value is given as 51%. Further, the IC50 in assay [1] is 25.5 µM; in assay [2], 47.4 µM.

In the case of `Cc1ccc([N+](=O)[O-])cc1S(=O)(=O)N(C)C` [BRL-50481, reference compound], the IC50 in assay [2] is 0.2 µM.

For the compound `Cc1c(O)c(C)c2c(c1O)C(=O)O[C@](C)(O)[C@H]2C` [Compound 7, (3S,4S)-sclerotinin A], the “Luminescence Signal (%)” value in the assay on cAMP-related PDEs was found to be 53%. For the same compound, in assay [1], the IC50 stood at 28.2 µM and the “PDE4B inhibitory activity (in words)” value is “weak”. Further, in assay [2], the IC50 was ~5.6 µM and 5.6 µM.

On to `COc1ccc(C2CNC(=O)C2)cc1OC1CCCC1` (stereo not shown) [Rolipram, rolipram, reference compound], for which, in the assay on cAMP-related PDEs, the IC50 was about 0.1 µM and the “Luminescence Signal (%)” value was found to be 300%. Also, the “difference in luminescence signal values between rolipram and PBS groups” value in the assay on cAMP-related PDEs (rolipram 5 μM, forskolin 5 μM, cAMP cell model) is listed as “over 1000”.
